Each structure is given as a SMILES string.

Experiment [1] deals with TNF protein. Put plainly: vascular levels of TNF protein after local thalidomide in the mouse cuff model. The format is in vivo, mice. Particulars: thalidomide administered locally (cuff). As to the method: (§1) For the mouse study, ApoE*3-Leiden mice and TNF knockout mice were used to determine the impact of TNF-alpha on restenosis development after cuff placement around the femoral artery for 14 days. In another ApoE*3-Leiden mice group the cuffs were loaded with 1% (w/w) thalidomide, a TNF biosynthesis inhibitor.
Furthermore, the vascular levels of TNF protein were decreased when thalidomide was administered locally.

Experiment [2] concerns ApoE*3-Leiden mice. Put plainly: mouse femoral artery cuff model of restenosis (neointima formation). Particulars: cuff around the femoral artery for 14 days, cuffs loaded with 1% (w/w) thalidomide, p=0.005. The format is in vivo.
Description: as §1

For `O=C1CCC(N2C(=O)c3ccccc3C2=O)C(=O)N1` (centres unmarked) [thalidomide, 2-(2,6-dioxo-3-piperidinyl)-1H-isoindole-1,3(2H)-dione], the “vascular levels of TNF protein” value in experiment [1] was “decreased”. Further, the neointima formation entry in experiment [2] is recorded as “significantly less neointima formation”.

Values taken from US20090222080A1, “MEDICAL STENT PROVIDED WITH INHIBITORS OF TUMOR NECROSIS FACTOR-ALPHA” (Picarus NV SA, priority 2005, published 2009).
